Source: ChEMBL document CHEMBL1201862, “PubChem BioAssay data set” (2004)
Calls of active or inactive are those of the source.

Tests used:
[1] = target: G-protein coupled receptor 35 (Homo sapiens, UniProt Q9HC97); assay: GPR35 antagonists blocking zaprinast-driven arrestin recruitment, primary screen, imaging, U2OS, beta-arrestin-GFP, zaprinast agonist (AID 2058); type: functional;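 note: antagonist potency meaning inhibition of agonist-induced arrestin redistribution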
[2] = inhibitors of firefly luciferase expression or activity, dose response, H4 neuroglioma cells, luminescence (AID 1990); type: functional, cell-based
[3] = Luminescence Cell-Based Dose Response HTS to Identify Inhibitors of 5'UTR Stem-Loop Driven Prion Protein mRNA Translation in H4 Neuroglioblastoma Cells. [Related pubchem assays: 1827 (Project Summary), 1813 (Primary HTS)]; type: functional
Beta-galactosidase = Beta-galactosidase (Escherichia coli, UniProt Q8VNN2); assay: PubChem AID 485352; type: functional
Sequence of Beta-galactosidase (Q8VNN2 whole entry): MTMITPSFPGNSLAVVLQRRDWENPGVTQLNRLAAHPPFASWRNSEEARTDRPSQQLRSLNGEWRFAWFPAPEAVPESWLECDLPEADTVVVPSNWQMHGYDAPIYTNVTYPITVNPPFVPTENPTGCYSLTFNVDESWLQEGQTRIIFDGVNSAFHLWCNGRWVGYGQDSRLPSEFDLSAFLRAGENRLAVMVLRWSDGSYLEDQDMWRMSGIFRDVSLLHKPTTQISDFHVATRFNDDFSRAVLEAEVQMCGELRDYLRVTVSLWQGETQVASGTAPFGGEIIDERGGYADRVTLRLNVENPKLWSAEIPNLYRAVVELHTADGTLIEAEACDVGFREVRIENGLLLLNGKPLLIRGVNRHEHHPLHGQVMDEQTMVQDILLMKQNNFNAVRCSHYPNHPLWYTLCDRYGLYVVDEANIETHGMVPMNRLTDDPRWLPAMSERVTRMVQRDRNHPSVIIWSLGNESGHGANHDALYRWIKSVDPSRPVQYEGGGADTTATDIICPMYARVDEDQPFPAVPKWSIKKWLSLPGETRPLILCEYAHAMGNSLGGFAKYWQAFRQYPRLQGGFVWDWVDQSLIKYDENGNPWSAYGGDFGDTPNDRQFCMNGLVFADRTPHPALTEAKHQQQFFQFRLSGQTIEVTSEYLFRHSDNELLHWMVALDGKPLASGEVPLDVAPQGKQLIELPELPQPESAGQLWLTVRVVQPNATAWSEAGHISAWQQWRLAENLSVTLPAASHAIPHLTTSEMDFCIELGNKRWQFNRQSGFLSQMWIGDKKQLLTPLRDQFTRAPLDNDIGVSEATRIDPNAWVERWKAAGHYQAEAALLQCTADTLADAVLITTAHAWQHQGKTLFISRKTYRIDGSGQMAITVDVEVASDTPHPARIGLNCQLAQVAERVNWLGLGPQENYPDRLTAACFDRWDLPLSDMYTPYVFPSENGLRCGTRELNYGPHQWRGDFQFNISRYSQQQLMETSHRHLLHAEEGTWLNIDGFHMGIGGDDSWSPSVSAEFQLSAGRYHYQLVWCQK

Streptococcus = assay: Luminescence Microorganism-Based Dose Response Follow up to Identify Compounds Cytotoxic to Streptococcus. [Related pubchem assays: 1677 (Project Summary), 1915, 1914, 1902 (Retest at Dose), 1900 (Counter Screen), 1662 (Primary HTS)]; type: functional, organism-based
Large T antigen = Large T antigen (Simian virus 40, UniProt P03070); type: functional, Betapolyomavirus macacae;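 note: Confirmatory-stage PubChem screen for compounds that inhibit SV40 T antigen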
Sequence of Large T antigen (P03070 whole entry): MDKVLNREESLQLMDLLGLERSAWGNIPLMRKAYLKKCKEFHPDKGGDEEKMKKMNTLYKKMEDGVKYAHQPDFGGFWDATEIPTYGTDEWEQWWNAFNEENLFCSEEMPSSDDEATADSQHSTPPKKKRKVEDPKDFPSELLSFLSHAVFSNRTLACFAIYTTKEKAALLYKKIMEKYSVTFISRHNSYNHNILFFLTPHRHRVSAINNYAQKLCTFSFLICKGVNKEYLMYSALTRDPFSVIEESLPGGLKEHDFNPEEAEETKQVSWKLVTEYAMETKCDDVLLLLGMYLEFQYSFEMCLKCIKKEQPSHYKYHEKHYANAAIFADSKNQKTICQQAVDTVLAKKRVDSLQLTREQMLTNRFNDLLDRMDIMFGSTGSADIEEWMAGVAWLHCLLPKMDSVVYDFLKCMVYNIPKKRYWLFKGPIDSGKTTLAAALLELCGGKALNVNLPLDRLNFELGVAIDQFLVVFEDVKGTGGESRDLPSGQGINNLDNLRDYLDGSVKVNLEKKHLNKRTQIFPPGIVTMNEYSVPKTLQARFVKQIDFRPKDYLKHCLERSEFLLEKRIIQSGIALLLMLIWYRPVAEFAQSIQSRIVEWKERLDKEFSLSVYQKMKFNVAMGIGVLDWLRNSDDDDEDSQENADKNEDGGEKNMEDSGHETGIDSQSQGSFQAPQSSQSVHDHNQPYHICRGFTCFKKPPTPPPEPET

Beta Lactamase = Beta Lactamase (Pseudomonas aeruginosa, UniProt Q932Y6); assay: beta-lactamase reporter inhibitor potency, dose response, artefact control for TLR9-MyD88 binding inhibitor project, BLA reporter cells, FRET fluorescence (AID 588341); type: cell-based;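 note: cell based assay in CHO-K1 cells stably expressing beta-lactamase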
Sequence of Beta Lactamase (Q932Y6 whole entry): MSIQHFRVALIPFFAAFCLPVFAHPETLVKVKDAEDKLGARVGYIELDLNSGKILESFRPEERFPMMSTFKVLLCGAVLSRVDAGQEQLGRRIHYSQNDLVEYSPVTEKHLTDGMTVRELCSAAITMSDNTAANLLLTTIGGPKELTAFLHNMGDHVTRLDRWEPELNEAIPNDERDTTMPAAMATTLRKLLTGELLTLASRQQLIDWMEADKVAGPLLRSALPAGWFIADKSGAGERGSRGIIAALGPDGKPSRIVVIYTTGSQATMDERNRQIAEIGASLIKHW

INS1 = assay: beta cell apoptosis inhibitors, cytokine rescue, dose response, luminescence, retest (AID 449756); type: functional, cell-based; details: Rattus norvegicus;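 note: cell death triggered by IL-1 beta plus TNF-alpha plus IFN-gamma mixture; protective hits raise ATP signal compared with cytokine alone wells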
Melanocortin receptor 4 = Melanocortin receptor 4 (Homo sapiens, UniProt P32245); assay: MC4R antagonist potency on cAMP, dose response, cell-based, TR-FRET, biased antagonists (AID 602298); type: functional;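 note: antagonist potency against agonist-stimulated cAMP production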
Sequence of Melanocortin receptor 4 (P32245 whole entry): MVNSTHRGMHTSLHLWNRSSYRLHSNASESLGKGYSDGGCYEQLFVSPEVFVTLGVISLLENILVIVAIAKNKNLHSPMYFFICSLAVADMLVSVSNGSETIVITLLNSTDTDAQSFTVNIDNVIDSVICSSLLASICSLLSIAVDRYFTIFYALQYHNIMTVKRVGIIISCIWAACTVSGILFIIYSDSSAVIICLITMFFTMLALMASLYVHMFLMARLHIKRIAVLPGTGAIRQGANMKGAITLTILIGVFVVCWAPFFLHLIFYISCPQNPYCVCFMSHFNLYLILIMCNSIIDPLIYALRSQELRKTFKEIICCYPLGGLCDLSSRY

[4] = Shn3 3'UTR reporter inhibitors, dose response, cell-based, Clone20 osteoblasts, firefly luciferase, cherry-picked (AID 624132); type: functional;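 note: firefly luciferase luminescence from reporter carrying the Shn3 3'UTR in osteoblasts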
[5] = HepG2 cell cytotoxicity, dose response, cytotoxicity control for Shn3 inhibitor project, CellTiter-Glo, cherry-picked (AID 624134); type: functional, cell-based
[6] = control 3'UTR Renilla luciferase suppression, dose response, counter-screen for Shn3 inhibitor project, cell-based, Clone20-Shn3RL, cherry-picked (AID 624133); type: functional
Fatty acid synthase [7] = target: T1, Fatty acid synthase (Homo sapiens, UniProt P49327); assay: FAS thioesterase domain inhibitors, dose response, biochemical, endpoint fluorescence intensity, uHTS hits (AID 624327); type: functional;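 note: fluorescence from hydrolysis of an O-methyl fluorescein acyl ester substrate by the enzyme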
T1 sequence (P49327 whole entry, the tested form may be a part): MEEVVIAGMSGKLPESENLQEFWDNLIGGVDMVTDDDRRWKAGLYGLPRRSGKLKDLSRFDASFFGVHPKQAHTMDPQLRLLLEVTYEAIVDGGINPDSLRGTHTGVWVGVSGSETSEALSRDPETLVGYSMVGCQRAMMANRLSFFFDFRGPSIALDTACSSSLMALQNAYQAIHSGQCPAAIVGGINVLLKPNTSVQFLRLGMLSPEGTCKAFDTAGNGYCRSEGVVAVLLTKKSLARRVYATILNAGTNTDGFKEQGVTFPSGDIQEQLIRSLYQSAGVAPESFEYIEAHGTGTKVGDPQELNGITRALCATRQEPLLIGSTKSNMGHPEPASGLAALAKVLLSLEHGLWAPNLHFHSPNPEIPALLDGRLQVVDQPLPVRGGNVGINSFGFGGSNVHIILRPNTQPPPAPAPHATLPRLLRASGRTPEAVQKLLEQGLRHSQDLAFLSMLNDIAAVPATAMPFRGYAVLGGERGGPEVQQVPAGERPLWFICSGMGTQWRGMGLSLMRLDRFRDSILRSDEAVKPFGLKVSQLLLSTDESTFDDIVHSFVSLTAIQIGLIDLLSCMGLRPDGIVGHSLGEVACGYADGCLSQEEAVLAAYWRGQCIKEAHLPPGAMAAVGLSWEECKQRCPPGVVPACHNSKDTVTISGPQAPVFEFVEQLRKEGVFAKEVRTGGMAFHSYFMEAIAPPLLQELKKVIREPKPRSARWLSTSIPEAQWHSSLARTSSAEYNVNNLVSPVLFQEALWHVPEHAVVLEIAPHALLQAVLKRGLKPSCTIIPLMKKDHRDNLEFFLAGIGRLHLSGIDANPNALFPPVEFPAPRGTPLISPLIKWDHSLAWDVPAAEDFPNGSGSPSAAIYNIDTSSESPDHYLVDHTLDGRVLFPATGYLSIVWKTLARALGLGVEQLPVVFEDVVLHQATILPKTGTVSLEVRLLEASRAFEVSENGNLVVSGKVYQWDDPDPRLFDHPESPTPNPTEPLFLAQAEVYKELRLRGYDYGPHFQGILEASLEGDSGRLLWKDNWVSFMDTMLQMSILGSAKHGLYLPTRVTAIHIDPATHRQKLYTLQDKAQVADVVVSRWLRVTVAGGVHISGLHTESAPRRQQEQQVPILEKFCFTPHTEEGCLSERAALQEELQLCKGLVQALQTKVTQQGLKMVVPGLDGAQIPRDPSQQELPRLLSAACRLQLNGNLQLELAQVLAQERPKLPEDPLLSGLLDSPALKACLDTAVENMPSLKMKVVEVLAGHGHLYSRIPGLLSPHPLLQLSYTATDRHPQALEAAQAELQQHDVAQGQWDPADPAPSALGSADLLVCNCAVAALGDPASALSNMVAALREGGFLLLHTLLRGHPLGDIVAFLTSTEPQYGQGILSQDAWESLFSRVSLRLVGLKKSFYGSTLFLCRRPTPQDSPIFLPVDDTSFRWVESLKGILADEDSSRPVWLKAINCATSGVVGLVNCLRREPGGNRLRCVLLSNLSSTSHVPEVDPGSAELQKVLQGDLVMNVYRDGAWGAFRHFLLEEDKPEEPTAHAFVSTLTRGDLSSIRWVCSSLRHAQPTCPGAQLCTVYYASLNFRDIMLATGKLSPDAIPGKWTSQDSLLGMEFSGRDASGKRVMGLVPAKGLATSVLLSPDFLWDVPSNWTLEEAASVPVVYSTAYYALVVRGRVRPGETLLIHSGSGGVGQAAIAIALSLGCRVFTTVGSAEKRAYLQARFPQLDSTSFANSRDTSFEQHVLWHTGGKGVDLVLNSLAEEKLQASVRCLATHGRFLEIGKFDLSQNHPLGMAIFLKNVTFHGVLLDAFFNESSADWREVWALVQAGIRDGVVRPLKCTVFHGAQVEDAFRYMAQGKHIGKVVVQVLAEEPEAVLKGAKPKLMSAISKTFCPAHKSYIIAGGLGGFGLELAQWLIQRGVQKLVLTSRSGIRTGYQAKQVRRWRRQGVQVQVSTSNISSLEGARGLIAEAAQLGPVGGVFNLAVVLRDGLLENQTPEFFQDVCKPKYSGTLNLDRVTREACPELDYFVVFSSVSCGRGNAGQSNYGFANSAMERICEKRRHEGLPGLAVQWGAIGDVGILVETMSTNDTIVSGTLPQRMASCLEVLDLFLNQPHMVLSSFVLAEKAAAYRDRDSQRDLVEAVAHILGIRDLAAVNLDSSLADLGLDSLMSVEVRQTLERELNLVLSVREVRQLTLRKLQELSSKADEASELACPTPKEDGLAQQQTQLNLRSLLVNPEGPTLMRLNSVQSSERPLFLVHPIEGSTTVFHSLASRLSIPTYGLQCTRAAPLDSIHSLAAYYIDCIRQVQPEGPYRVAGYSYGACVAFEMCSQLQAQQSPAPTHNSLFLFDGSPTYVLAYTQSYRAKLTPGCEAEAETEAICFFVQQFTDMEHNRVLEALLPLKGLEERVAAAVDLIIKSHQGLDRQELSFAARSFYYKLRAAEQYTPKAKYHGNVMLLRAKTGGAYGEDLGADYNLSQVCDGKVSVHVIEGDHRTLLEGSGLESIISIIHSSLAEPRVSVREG

Fatty acid synthase [8] = target: T1, Fatty acid synthase; assay: FAS thioesterase domain inhibitors, dose response, biochemical, kinetic fluorescence intensity (AID 624326); type: functional;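 note: rate of fluorescence rise from hydrolysis of a fluorogenic O-methyl fluorescein ester substrate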
[9] = target: T2, RNA-binding protein pos-1 (Caenorhabditis elegans, UniProt G5EF15); assay: inhibitors of POS-1/mex-3 RNA binding, dose response, biochemical, fluorescence polarization (AID 1964);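 note: purified POS-1 fused to maltose binding protein made in E. coli; potency of compounds blocking POS-1 binding to fluorescent RNA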
T2 sequence (G5EF15 whole entry): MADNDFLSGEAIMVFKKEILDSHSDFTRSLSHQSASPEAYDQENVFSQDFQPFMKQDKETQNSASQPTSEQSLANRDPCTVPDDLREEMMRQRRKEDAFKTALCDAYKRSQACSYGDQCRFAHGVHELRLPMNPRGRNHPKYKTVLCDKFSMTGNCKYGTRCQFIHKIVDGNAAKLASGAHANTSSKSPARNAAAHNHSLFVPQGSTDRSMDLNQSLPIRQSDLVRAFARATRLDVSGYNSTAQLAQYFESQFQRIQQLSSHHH

[10] = target: T3, Zinc finger protein mex-5 (Caenorhabditis elegans, UniProt Q9XUB2); assay: MEX-5/TCR-2 RNA interaction inhibitors, dose response, biochemical, C. elegans, fluorescence polarization (AID 1960)
T3 sequence (Q9XUB2 whole entry): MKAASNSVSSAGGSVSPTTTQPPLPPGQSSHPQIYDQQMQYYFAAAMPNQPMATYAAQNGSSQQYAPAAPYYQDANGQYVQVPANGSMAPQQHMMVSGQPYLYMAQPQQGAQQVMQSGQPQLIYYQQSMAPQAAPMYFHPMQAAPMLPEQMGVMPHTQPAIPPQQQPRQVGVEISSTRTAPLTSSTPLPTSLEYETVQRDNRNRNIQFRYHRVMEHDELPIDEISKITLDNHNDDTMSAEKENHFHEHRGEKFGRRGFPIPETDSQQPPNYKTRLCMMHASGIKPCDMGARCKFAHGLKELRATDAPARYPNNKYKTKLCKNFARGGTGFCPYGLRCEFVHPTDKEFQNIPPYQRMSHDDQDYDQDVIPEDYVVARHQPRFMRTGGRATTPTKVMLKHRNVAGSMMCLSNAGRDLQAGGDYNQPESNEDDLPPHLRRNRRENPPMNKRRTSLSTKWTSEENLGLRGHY

[11] = tested on: Streptococcus sp. 'group A'; assay: growth inhibition of control SK(-) GAS strain, dose response, counter-screen for streptokinase expression inhibitor project, luminescence, kanamycin, BacTiterGlo, confirmation (AID 1900); type: functional, organism-based
[12] = microbe, parasite or virus in culture; type: functional; details: Mycobacterium tuberculosis
Nonstructural protein 1 = Nonstructural protein 1 (Influenza A virus, UniProt Q194T2); type: functional, Influenza A virus (A/California/07/2009(H1N1))
Sequence of Nonstructural protein 1 (Q194T2 whole entry): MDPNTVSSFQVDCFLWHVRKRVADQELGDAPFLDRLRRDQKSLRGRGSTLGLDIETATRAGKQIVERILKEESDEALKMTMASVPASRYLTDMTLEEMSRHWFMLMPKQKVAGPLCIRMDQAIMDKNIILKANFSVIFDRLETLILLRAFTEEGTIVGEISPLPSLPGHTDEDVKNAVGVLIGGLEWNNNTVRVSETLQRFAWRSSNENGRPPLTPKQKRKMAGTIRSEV

[13] = HepG2 cell cytotoxicity, dose response, cytotoxicity control, ATP luminescence, cherry-pick, activator set 2 (AID 1053143); type: functional, cell-based

CCC1CCCCN1S(=O)(=O)c1ccc(NC(=O)c2nc(S(C)(=O)=O)ncc2Cl)cc1 (stereo not given)
active: IC50 [1] 3.23 µM | EC50 [2] 11.2 µM | EC50 [3] 11.8 µM | EC50 (Streptococcus) 16.5 µM | IC50 (Large T antigen) 44.8 µM | AC50 (INS1) 5.24 µM | IC50 (Melanocortin receptor 4) 1.17 µM | AC50 [4] 0.341 µM | AC50 [5] 17 µM | AC50 [6] 2.46 µM | IC50 (Fatty acid synthase [7]) 5.75 µM | IC50 (Fatty acid synthase [8]) 4.03 µM
inactive: EC50 (Beta-galactosidase) > 40 µM | IC50 (Beta Lactamase) 11.1 µM

CCCC[n+]1ccn(C2=C([N-]S(=O)(=O)c3ccc(Cl)cc3)C(=O)c3ccccc3C2=O)c1
inconclusive: EC50 [9] > 300 µM | EC50 [10] 85.9 µM

CC(=O)c1cccc2c1N=C(c1[nH]c3ccccc3c1O)C2=O
active: EC50 [11] 3.8 µM | CC50 [12] > 40 µM | IC50 (Nonstructural protein 1) 13.9 µM | AC50 [13] 22.4 µM
